Experimental data: the NIST ThermoML archive (doi:10.1016/j.fluid.2007.04.014)

Columns and labels:
[1] = Solid-liquid equilibrium temperature; conditions: Crystal, Closed cell (Static) method
[2] = Crystal; Closed cell (Static) method

CCCCCCCCCCCCCCCCC [heptadecane]
[1]
Conditions	Solid-liquid equilibrium temperature [K]
20800 kPa	299.75
40100 kPa	304.05
60100 kPa	308.3
80100 kPa	312.4
99300 kPa	316.5

Conditions	Normal melting temperature [°C]
[2]	22.20
